Test results as given in patent US8980874B2, “Method and composition for treating diabetic ketoacidosis” (Midwestern University, priority 2009, dated 2015).
Entries after “also recorded” stand apart in the source; their conditions may differ. Counter-ions that a name gives are not always drawn.

Columns and labels:
Format in all cases: in vivo
rat model of DKA [1] = test: Plasma ET-1 level (Enzyme Immunometric Assay) in diabetic ketoacidosis rats
Method: In order to analyze the change in plasma ET-1 level during the treatment, blood samples were withdrawn through right femoral artery of the rats before and at the end of experiment and were collected into chilled EDTA tubes (1 mg/mL blood) containing aprotinin (500 KIU/mL of blood). The blood samples were centrifuged at 1,600×g for 15 minutes at 0° C. and plasma separated was stored at −70° C. until analyzed. ET-1 level was estimated using Assay's Design's Endothelin-1 Enzyme Immunometric Assay Kit (Nowicki et al., 2005; Brondani et al., 2007). Briefly, plasma samples and standards were added to wells coated with a monoclonal antibody specific for ET-1. The plate then was washed after 24 hours of incubation, leaving only bound ET-1 on the plate. A solution of horseradish peroxidase (HRP) labeled monoclonal antibody to ET-1 then was added, which binds to the ET-1 captured on the plate. The plate was incubated for 30 min, then washed to remove excess HRP labeled antibody. A solution of 3,3′,5,5′-tetramethylbenzidine (TMB) substrate was added, which generates a blue color when catalyzed by the HRP. Hydrochloric acid (1N) was added to stop the substrate reaction, and the resulting yellow color was read at 450 nm using DTX 800 Multimode detector. The data was analyzed with Multimode Detection Software (Beckman Coulter, Inc., Fullerton, Calif.). The measured optical density is directly proportional to the concentration of ET-1 in either standards/plasma. Blood samples from all the groups were collected before the start and at end of the treatment.
(§1) Group 4: Diabetic saline/insulin treated (D-Saline+insulin treated): Rats were injected with streptozotocin in citrate buffer (150 mg/kg ip) to induce diabetes and ketoacidosis. On day three, rats were treated with 1.5 U/kg regular insulin (Humulin® R (Regular human insulin, rDNA origin). On day four, saline and insulin treatment was carried out. Rats were infused via cannulated femoral vein saline, 0.9% NaCl at 80 mL/kg/hr and 1.5 U/kg/hr regular insulin for one hour. During the next two through four hours, rats were infused with saline, 0.9% NaCl at 40 mL/kg/hr and 1.5 U/kg/hr regular insulin (Yuen et al., 2008).
(§2) Group 5: Diabetic BMS-182874/saline/insulin treated (D-BMS+Saline+insulin treated): Rats were injected with streptozotocin in citrate buffer (150 mg/kg ip) to induce diabetes and ketoacidosis. On day three, rats were treated with 1.5 U/kg regular insulin. On day four, rats were administered a bolus dose of selective ETA receptor antagonist, BMS-182874 (9 mg/kg), then saline and insulin treatment was carried out. Rats were infused via cannulated femoral vein saline, 0.9% NaCl at 80 mL/kg/hr and 1.5 U/kg/hr regular insulin for one hour. During the next two through four hours rats were infused with saline, 0.9% NaCl at 40 mL/kg/hr and 1.5 U/kg/hr regular insulin.
(§3) Group 6: Diabetic BQ123/saline/insulin treated (D-BQ+saline+insulin treated): Same as above for Group 5, except BQ123 (1 mg/kg body weight) is used as a substitute for BMS-182874 (9 mg/kg).
(§4) Data are presented as mean±SEM. The significance of differences was estimated by one-way analysis of variance (intra group comparison with respect to base line data) and two-way analysis of variance (inter group comparison with respect to corresponding time points from each groups) followed by application of the Dunnett's Multiple Comparisons and Bonferroni test respectively. A P value of less than 0.05 was considered to be significant. The statistical analysis was processed with GraphPad Prism software Version 5.00.

rat model of DKA [2] = test: Arterial blood gases, electrolytes, lactate and hematocrit in diabetic ketoacidosis rats; details: for arterial blood pH, Day 4 (pre-tx): instrument could not record pH below 6.80, mean±SEM
From the text: Arterial blood pH, pO2, pCO2, Na^+, K^+, lactate, and hematocrit were monitored prior to, at one hour, and at the end of treatment. Blood samples were drawn from the arterial cannula using blood gas sampling syringes (Innovative Medical Technologies, Inc. Leawood, Kans.) and analyzed using a GEM Premier 3000 unit (Instrument Laboratory, Lexington, Mass.). Blood samples were withdrawn from the femoral artery for baseline reading prior to start of treatment, after the first hour of treatment, and then at the end of the treatment (fifth hour of experiment).
as §1, §2, §3, §4

rat model of DKA [3] = test: Cardiovascular parameters (MAP, pulse pressure, heart rate) in diabetic ketoacidosis rats
From the text: Rats were anaesthetized with urethane (1.5 g/kg ip.) and prepared for the determination of hemodynamic parameters (Gulati et al., 1997a; Gulati et al., 1997b). The anesthetized rats were shaved and immobilized to prepare for cannulation. A 2-3 centimeter (cm) incision was made above the femoral vein and artery and the vessels were dissected and cleaned. The left femoral vein was cannulated (PE-50 tubing, Clay Adams, Parsipanny, N.J.) and secured for drug administration. An ultra-miniature pressure transducer SPR-320 (2F Polyurethane), with a single pressure sensor side mounted at the tip (Millar Instruments, Houston, Tex.) was inserted in the left femoral artery to acquire the hemodynamic signals. Pressure transducer was connected to bridge amplifier (ML221 Bridge Amp; AD Instruments, Mountain View, Calif., USA) with Viking connector (AEC-10C) and the signals were continuously acquired at a sampling rate of 1000 S^−1 using Millar PowerLab 16/30 data acquisition system (AD Instruments, Mountain View, Calif., USA). Mean arterial pressure (MAP), heart rate (HR), and pulse pressure (PP) were determined and analyzed with LabChart-5.00 software program (Millar Instruments). After the experiment was completed, the animals were euthanized with a high dose of urethane (3 gm/kg).
as §1, §2, §3, §4

rat model of DKA [4] = test: Brain blood perfusion (Laser Doppler Flowmetry) in diabetic ketoacidosis rats; details: day 4, FIG. 6, antagonist given with saline+insulin, result in words
Method: A burr hole was drilled into the rat skull approximately 2 millimeters (mm) to the left of midline, being careful not to disturb the brain tissue itself. Cerebrovascular perfusion was measured via a fiber optic probe (PF407) applied to the surface of the rat brain. The probe was connected to a Periflux PF2b 4000 Laser Doppler Flowmetry unit (Perimed, Stockholm, Sweden). The perfusion was determined by measuring the passage of red blood cells through the capillaries.
as §1, §2, §3, §4

[5] = day 4, BMS-182874+saline+insulin group
[6] = day 4, compared to diabetic untreated rats, result in words
[7] = saline+insulin, alone or after bolus BMS-182874 9 mg/kg or BQ123 1 mg/kg

Structure (SMILES): Cc1noc(NS(=O)(=O)c2cccc3c(N(C)C)cccc23)c1C [BMS-182874, (5-Dimethylamino)-N-(3,4-dimethyl-5-isoxazolyl)-1-naphthalene sulfonamide hydrochloride]
- plasma ET-1, Day 4 (pre tx) (rat model of DKA [1]; baseline before treatment, mean±SEM): 11.93 ± 2.01 pg/mL
- effect of treatment on plasma ET-1 level (rat model of DKA [1]; day 4, result in words (Table 4, FIG. 9)): did not significantly affect plasma ET-1 level
- plasma ET-1, Day 4 (end of tx) (rat model of DKA [1]; saline+insulin, alone or after bolus BMS-182874 9 mg/kg or BQ123 1 mg/kg, mean±SEM): 20.40 ± 3.23 pg/mL
- arterial blood pH, Day 4 (pre-tx) (rat model of DKA [2]; baseline, hydrochloride): 6.82±0.02
- arterial blood pH, Day 4 (pre-tx) (rat model of DKA [2]; baseline, listed as BMS, hydrochloride): 6.82 ± 0.02
- arterial blood pCO2, Day 4 (pre-tx) (rat model of DKA [2]; baseline, mean±SEM): 28.71 ± 2.08 mmHg
- arterial blood pO2, Day 4 (pre-tx) (rat model of DKA [2]; baseline, mean±SEM): 156.71 ± 7.11 mmHg
- blood K+ level, Day 4 (pre-tx) (rat model of DKA [2]; baseline, mean±SEM): 4.21 ± 0.33 mmol/L
- blood Na+ level, Day 4 (pre-tx) (rat model of DKA [2]; baseline, mean±SEM): 135.71 ± 2.06 mmol/L
- blood hematocrit (Hct), Day 4 (pre-tx) (rat model of DKA [2]; baseline, mean±SEM): 45.71 ± 1.48%
- blood K+ levels, after treatment (to) (rat model of DKA [2]; [5]): 2.75 ± 0.27 mM
- blood K+ levels, before treatment (from) (rat model of DKA [2]; [5]): 4.21 ± 0.33 mM
- effect of treatment on arterial blood pH (acidosis) (rat model of DKA [2]; day 4, antagonist given with saline+insulin, result in words): produced a significant improvement in arterial blood pH
- effect of treatment on blood K+ levels (rat model of DKA [2]; [6]): significantly reduced the change in blood K^+ levels
- effect of treatment on blood lactate levels (rat model of DKA [2]; [6]): significantly reduced the change in blood lactate levels
- effect of treatment on hematocrit (rat model of DKA [2]; [6]): significantly reduced the hematocrit
- arterial blood pCO2, Day 4 (1 hour of tx) (rat model of DKA [2]; [7]): 30.57 ± 1.94 mmHg
- arterial blood pCO2, Day 4 (end of tx) (rat model of DKA [2]; [7]): 30.57 ± 2.23 mmHg
- arterial blood pO2, Day 4 (1 hour of tx) (rat model of DKA [2]; [7]): 135.57 ± 6.37 mmHg
- arterial blood pO2, Day 4 (end of tx) (rat model of DKA [2]; [7]): 143.85 ± 6.59 mmHg
- blood K+ level, Day 4 (1 hour tx) (rat model of DKA [2]; [7]): 2.62 ± 0.29 mmol/L
- blood K+ level, Day 4 (end of tx) (rat model of DKA [2]; [7]): 2.75 ± 0.27 mmol/L
- blood Na+ level, Day 4 (1 hour of tx) (rat model of DKA [2]; [7]): 143.42 ± 1.84 mmol/L
- blood Na+ level, Day 4 (end of tx) (rat model of DKA [2]; [7]): 146.14 ± 1.14 mmol/L
- blood hematocrit (Hct), Day 4 (1 hour of tx) (rat model of DKA [2]; [7]): 33.28 ± 1.52 %
- blood hematocrit (Hct), Day 4 (end of tx) (rat model of DKA [2]; [7]): 29.28 ± 2.22 %
- arterial blood pH, Day 4 (1 hour of tx) (rat model of DKA [2]; saline+insulin, alone or after bolus BMS-182874 9 mg/kg or BQ123 1 mg/kg, instrument floor 6.80): 6.81 ± 0.01
- arterial blood pH, Day 4 (end of tx) (rat model of DKA [2]; saline+insulin, alone or after bolus BMS-182874 9 mg/kg or BQ123 1 mg/kg, instrument floor 6.80, hydrochloride): 6.91±0.02
- arterial blood pH, Day 4 (end of tx) (rat model of DKA [2]; saline+insulin, alone or after bolus BMS-182874 9 mg/kg or BQ123 1 mg/kg, instrument floor 6.80, listed as BMS, hydrochloride): 6.91 ± 0.02
- effect on mean arterial pressure (rat model of DKA [3]; day 4, FIG. 3, antagonist given with saline+insulin, result in words): stabilized the arterial pressure
- effect on pulse pressure (rat model of DKA [3]; day 4, FIG. 4, antagonist given with saline+insulin, result in words): stabilized the pulse pressure
- effect on heart rate (rat model of DKA [3]; day 4, FIG. 5, antagonist given with saline+insulin, result in words): did not produce any decrease in heart rate compared to baseline
- effect on insulin induced hypertension (rat model of DKA [3]; day 4, result in words): prevented development of insulin induced hypertension
- effect on cerebral blood perfusion (rat model of DKA [4]; hydrochloride): significantly blocked; also recorded: prevented
- effect on cerebral blood perfusion (rat model of DKA [4]; listed as BMS182874, hydrochloride): prevented an insulin induced increase in cerebral blood perfusion
